In patent publication US11078198B2 (BRISTOL-MYERS SQUIBB COMPANY, priority 2017, dated 2021):

Target: T1, human FXR (Homo sapiens, UniProt Q96RI1)
T1 construct: expressed in transfected cells; host or cells: HEK293 cells stably carrying a 5xGal4-response-element firefly luciferase reporter, transiently transfected with pcDNA3.1-Gal4-FXR
T1 sequence (Q96RI1 262-486 limits assumed): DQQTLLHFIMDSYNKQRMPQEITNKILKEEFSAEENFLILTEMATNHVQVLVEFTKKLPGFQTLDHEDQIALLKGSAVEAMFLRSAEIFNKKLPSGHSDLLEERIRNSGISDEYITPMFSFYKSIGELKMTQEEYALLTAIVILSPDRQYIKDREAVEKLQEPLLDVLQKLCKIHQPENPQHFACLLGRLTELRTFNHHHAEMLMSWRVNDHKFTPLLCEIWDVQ
Test: transient human FXR/Gal4-luciferase reporter assay
Assay type: cell-based
Conditions: Gal4-hFXR transfected HEK293 reporter cells; relative to 8 μM GW-4064
Outline: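 Transient Gal4-hFXR LBD fusion (pcDNA3.1, Lipofectamine, overnight) expressed in a HEK293 reporter line stably bearing five Gal4 elements upstream of firefly luciferase, grown in charcoal/dextran-stripped FBS. Compound dilutions in DMSO incubated with cells overnight at 37° C, 5% CO2, before luciferase readout.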

| EC50 [nM] | Structure (SMILES) |
| --- | --- |
| 2.3 | O=C(O)c1cc(OC(F)F)c2cc(N3CCC4(C=C(c5c(-c6ccccc6C(F)(F)F)noc5C5CC5)C4)CC3)ccc2n1 [Example 58, 6-(2-(5-Cyclopropyl-3-(2-(trifluoromethyl)phenyl)isoxazol-4-yl)-7-azaspiro[3.5]non-1-en-7-yl)-4-(difluoromethoxy)quinoline-2-carboxylic acid] |
| 177 | O=C(O)c1cc2ccc(N3CCC4(C=C(c5c(-c6ccccc6C(F)(F)F)noc5C5CC5)C4)CC3)cc2nn1 [Example 54, 7-(2-(5-Cyclopropyl-3-(2-(trifluoromethyl)phenyl)isoxazol-4-yl)-7-azaspiro[3.5]non-1-en-7-yl)cinnoline-3-carboxylic acid] |
| 11 | O=C(O)c1cc(OC(F)(F)F)c2nc(N3CCC4(C=C(c5c(-c6c(Cl)cncc6Cl)noc5C5CC5)C4)CC3)sc2c1 [Example 50, 2-(2-(5-Cyclopropyl-3-(3,5-dichloropyridin-4-yl)isoxazol-4-yl)-7-azaspiro[3.5]non-1-en-7-yl)-4-(trifluoromethoxy)benzo[d]thiazole-6-carboxylic acid] |
| 194 | O=C(O)c1cc2ccc(N3CCC4(C=C(c5c(-c6c(F)cccc6Cl)noc5C5CC5)C4)CC3)cc2nn1 [Example 56, 7-(2-(3-(2-Chloro-6-fluorophenyl)-5-cyclopropylisoxazol-4-yl)-7-azaspiro[3.5]non-1-en-7-yl)cinnoline-3-carboxylic acid] |
| 102 | O=C(O)c1nc(C(F)(F)F)n2cc(N3CCC4(C=C(c5c(-c6c(Cl)cccc6Cl)noc5C5CC5)C4)CC3)ccc12 [Example 126, 6-(2-(5-Cyclopropyl-3-(2,6-dichlorophenyl)isoxazol-4-yl)-7-azaspiro[3.5]non-1-en-7-yl)-3-(trifluoromethyl)imidazo[1,5-a]pyridine-1-carboxylic acid] |
| 356 | O=C(O)c1cc(C(F)(F)F)c2cc(N3CCC4(C=C(c5c(-c6c(F)cccc6F)noc5C5CC5)C4)CC3)ccc2n1 [Example 82, 6-(2-(5-Cyclopropyl-3-(2,6-difluorophenyl)isoxazol-4-yl)-7-azaspiro[3.5]non-1-en-7-yl)-4-(trifluoromethyl)quinoline-2-carboxylic acid] |
| 1500 | O=C(O)CNC(=O)c1cc(F)c2nc(N3CCC4(C=C(c5c(-c6ccccc6C(F)(F)F)noc5C5CC5)C4)CC3)sc2c1 [Example 32, (2-(2-(5-Cyclopropyl-3-(2-(trifluoromethyl)phenyl)isoxazol-4-yl)-7-azaspiro[3.5]non-1-en-7-yl)-4-fluorobenzo[d]thiazole-6-carbonyl)glycine] |
| 482 | O=C(O)c1cc(F)c2nc(N3CCC4(C=C(c5c(-c6cnccc6C(F)(F)F)noc5C5CC5)C4)CC3)sc2c1 [Example 139, 2-(2-(5-Cyclopropyl-3-(4-(trifluoromethyl)pyridin-3-yl)isoxazol-4-yl)-7-azaspiro[3.5]non-1-en-7-yl)-4-fluorobenzo[d]thiazole-6-carboxylic acid] |
| 319 | O=C(O)c1cc(F)c2nc(N3CCC4(C=C(c5c(-c6cccnc6C(F)(F)F)noc5C5CC5)C4)CC3)sc2c1 [Example 138, 2-(2-(5-Cyclopropyl-3-(2-(trifluoromethyl)pyridin-3-yl)isoxazol-4-yl)-7-azaspiro[3.5]non-1-en-7-yl)-4-fluorobenzo[d]thiazole-6-carboxylic acid] |
| 19 | Cc1cccc(Cl)c1-c1noc(C2CC2)c1C1=CC2(CCN(c3nc4c(F)cc(C(=O)O)cc4s3)CC2)C1 [Example 103, 2-(2-(3-(2-Chloro-6-methylphenyl)-5-cyclopropylisoxazol-4-yl)-7-azaspiro[3.5]non-1-en-7-yl)-4-fluorobenzo[d]thiazole-6-carboxylic acid] |
| 18 | O=C(O)c1ccc2nc(N3CCC4(C=C(c5c(-c6ccccc6C(F)(F)F)noc5C5CC5)C4)CC3)sc2n1 [Example 102, 2-(2-(5-Cyclopropyl-3-(2-(trifluoromethyl)phenyl)isoxazol-4-yl)-7-azaspiro[3.5]non-1-en-7-yl)thiazolo[5,4-b]pyridine-5-carboxylic acid] |
| 1100 | O=C(O)c1cnc(N2CCC3(C=C(c4c(-c5ccccc5OC(F)(F)F)noc4C4CC4)C3)CC2)c(F)c1 [Example 27, 6-(2-(5-Cyclopropyl-3-(2-(trifluoromethoxy)phenyl)isoxazol-4-yl)-7-azaspiro[3.5]non-1-en-7-yl)-5-fluoronicotinic acid] |
| 5300 | O=C(O)CNC(=O)c1ccc(N2CCC3(C=C(c4c(-c5ccccc5C(F)(F)F)noc4C4CC4)C3)CC2)nc1 [Example 31, (6-(2-(5-Cyclopropyl-3-(2-(trifluoromethyl)phenyl)isoxazol-4-yl)-7-azaspiro[3.5]non-1-en-7-yl)nicotinoyl)glycine] |
| 4400 | COc1cc(C(=O)O)c2nc(N3CCC4(C=C(c5c(-c6c(Cl)cncc6Cl)noc5C5CC5)C4)CC3)sc2c1 [Example 70, 2-(2-(5-Cyclopropyl-3-(3,5-dichloropyridin-4-yl)isoxazol-4-yl)-7-azaspiro[3.5]non-1-en-7-yl)-6-methoxybenzo[d]thiazole-4-carboxylic acid] |
| 494 | O=C(O)c1nc(C(F)(F)F)n2cc(N3CCC4(C=C(c5c(-c6ccccc6OC(F)(F)F)noc5C5CC5)C4)CC3)ccc12 [Example 166, 6-(2-(5-Cyclopropyl-3-(2-(trifluoromethoxy)phenyl)isoxazol-4-yl)-7-azaspiro[3.5]non-1-en-7-yl)-3-(trifluoromethyl)imidazo[1,5-a]pyridine-1-carboxylic acid] |

Second part, the molecule before the results:

| Structure (SMILES) | EC50 [nM] |
| --- | --- |
| Cc1cc(C(=O)O)cnc1N1CCC2(C=C(c3c(-c4c(Cl)cccc4Cl)noc3C3CC3)C2)CC1 [Example 121, 6-(2-(5-Cyclopropyl-3-(2,6-dichlorophenyl)isoxazol-4-yl)-7-azaspiro[3.5]non-1-en-7-yl)-5-methylnicotinic acid] | 2590 |
| O=C(O)c1ccc2cc(OC3CCC4(C=C(c5c(-c6c(Cl)cccc6Cl)noc5C5CC5)C4)CC3)ccc2n1 (stereo not drawn) [Example 210, 6-((2-(5-Cyclopropyl-3-(2,6-dichlorophenyl)isoxazol-4-yl)spiro[3.5]non-1-en-7-yl)oxy)quinoline-2-carboxylic acid] | 485 |
| O=C(O)c1cc(C(F)(F)F)c2cc(N3CCC4(C=C(c5c(C6CCCCC6)noc5C5CC5)C4)CC3)ccc2n1 [Example 98, 6-(2-(3-Cyclohexyl-5-cyclopropylisoxazol-4-yl)-7-azaspiro[3.5]non-1-en-7-yl)-4-(trifluoromethyl)quinoline-2-carboxylic acid] | 1720 |
| Cn1c(C(=O)O)cc2ccc(N3CCC4(C=C(c5c(-c6c(Cl)cccc6Cl)noc5C5CC5)C4)CC3)cc21 [Example 128, 6-(2-(5-Cyclopropyl-3-(2,6-dichlorophenyl)isoxazol-4-yl)-7-azaspiro[3.5]non-1-en-7-yl)-1-methyl-1H-indole-2-carboxylic acid] | 287 |
| O=C(O)c1cc(F)c2nc(N3[C@@H]4CC[C@H]3CC3(COC(c5c(-c6c(Cl)cccc6Cl)noc5C5CC5)O3)C4)sc2c1 (stereo partly drawn) [Example 41, 2-((1R,5S)-2′-(5-cyclopropyl-3-(2,6-dichlorophenyl)isoxazol-4-yl)-8-azaspiro[bicyclo[3.2.1]octane-3,4′-[1,3]dioxolan]-8-yl)-4-fluorobenzo[d]thiazole-6-carboxylic acid] | 1700 |
| Cn1cc(C(=O)O)c2ccc(N3CCC4(C=C(c5c(C6CCCCC6)noc5C5CC5)C4)CC3)cc21 [Example 168, 6-(2-(3-Cyclohexyl-5-cyclopropylisoxazol-4-yl)-7-azaspiro[3.5]non-1-en-7-yl)-1-methyl-1H-indole-3-carboxylic acid] | 3970 |
| O=C(O)c1ccc2oc(N3CCC4(C=C(c5c(-c6c(Cl)cccc6Cl)noc5C5CC5)C4)CC3)nc2c1 [Example 26, 2-(2-(5-Cyclopropyl-3-(2,6-dichlorophenyl)isoxazol-4-yl)-7-azaspiro[3.5]non-1-en-7-yl)benzo[d]oxazole-5-carboxylic acid] | 157 |
| O=C(O)c1ccc(N2CCC3(CC2)COC(c2c(-c4ccccc4OC(F)(F)F)noc2C2CC2)O3)nc1 (stereo not drawn) [Example 43, 6-(2-(5-Cyclopropyl-3-(2-(trifluoromethoxy)phenyl)isoxazol-4-yl)-1,3-dioxa-8-azaspiro[4.5]decan-8-yl)nicotinic acid] | 5300 |
| O=C(NS(=O)(=O)C1CC1)c1cc(C(F)(F)F)c2cc(N3CCC4(C=C(c5c(-c6c(Cl)cncc6Cl)noc5C5CC5)C4)CC3)ccc2n1 [Example 183, 6-(2-(5-Cyclopropyl-3-(3,5-dichloropyridin-4-yl)isoxazol-4-yl)-7-azaspiro[3.5]non-1-en-7-yl)-N-(cyclopropylsulfonyl)-4-(trifluoromethyl)quinoline-2-carboxamide] | 55 |
| Cn1nc(C#N)c2ccc(N3CCC4(C=C(c5c(-c6ccccc6OC(F)(F)F)noc5C5CC5)C4)CC3)cc21 [Example 175, 6-(2-(5-Cyclopropyl-3-(2-(trifluoromethoxy)phenyl)isoxazol-4-yl)-7-azaspiro[3.5]non-1-en-7-yl)-1-methyl-1H-indazole-3-carbonitrile] | 3240 |
| CS(=O)(=O)NC(=O)c1cc(OC(F)F)c2cc(N3CCC4(C=C(c5c(-c6ccccc6C(F)(F)F)noc5C5CC5)C4)CC3)ccc2n1 [Example 186, 6-(2-(5-Cyclopropyl-3-(2-(trifluoromethyl)phenyl)isoxazol-4-yl)-7-azaspiro[3.5]non-1-en-7-yl)-4-(difluoromethoxy)-N-(methylsulfonyl)quinoline-2-carboxamide] | 13 |
| O=C(O)c1ccn2nc(N3CCC4(C=C(c5c(-c6c(Cl)cccc6Cl)noc5C5CC5)C4)CC3)ncc12 [Example 123, 2-(2-(5-Cyclopropyl-3-(2,6-dichlorophenyl)isoxazol-4-yl)-7-azaspiro[3.5]non-1-en-7-yl)pyrrolo[2,1-f][1,2,4]triazine-5-carboxylic acid] | 40 |
